One experiment has as its system HCT 116 cell line. The experiment is described as follows: Cell inhibition assay method A (WST-1, 120 hrs). The settings on record: Homo sapiens, HCT-116, method A, read-out: Inhibitor Activity vs HCT 116 cell line (method A). The format is cell-based. Here is the method:
Cell inhibition assays were carried out using either method A or method B
Cells were seeded in 96W tissue culture plates (1 well=30 mm^2) at a density of […] per well in 50 μL of the appropriate culture medium (see below). 24 hrs later […] of the compound prepared in the same medium was added as 4 fold dilutions to give final concentrations in the range 0.15 nM-2500 nM (n=6 for each concentration). The plates were then incubated at 37° C., 5% CO2 for 120 hrs. Cell proliferation was assessed using WST-1 (a metabolic indicator dye, Roche Cat no. 1 644 807) according to the manufacturers instructions. The results were calculated as percentage of vehicle response and IC50 values represent the concentration of compound that inhibited the vehicle response by 50%.
HCT-116 culture medium —Dulbeccos MEM (Sigma D6546) plus 10% heat inactivated fetal calf serum (Hyclone SH30071 Thermo Fischer Scientific) containing 2 mM Glutamine (Sigma cat no G-7513) and 50 U/ml Penicillin and Streptomycin Sulphate (Sigma Cat no P-0781).
(Tetrazolium dyes change colour on reduction, which living cells bring about.)

The next experiment addresses T1, PLK1 (Homo sapiens, UniProt P53350).
T1 construct: purchased Invitrogen (Paisley, UK)
The experiment is described as follows: PLK1 enzyme assay (Z'-LYTE, Invitrogen). The format is biochemical. The settings on record: ATP at or close to Km; read-out: Inhibitor Activity vs PLK1. The protocol: The ability of compounds to inhibit PLK-1 kinase activity was measured in an assay performed by Invitrogen (Paisley, UK). The Z′-LYTE™ biochemical assay employs a fluorescence-based, coupled-enzyme format and is based on the differential sensitivity of phosphorylated and non-phosphorylated peptides to proteolytic cleavage. The peptide substrate is labelled with two fluorophores—one at each end—that make up a FRET pair. In the primary reaction, the kinase transfers the gamma-phosphate of ATP to a single serine or threonine residue in a synthetic FRET-peptide. In the secondary reaction, a site-specific protease recognizes and cleaves non-phosphorylated FRET-peptides. Phosphorylation of FRET-peptides suppresses cleavage by the Development Reagent. Cleavage disrupts FRET between the donor (i.e., coumarin) and acceptor (i.e., fluorescein) fluorophores on the FRET-peptide, whereas uncleaved, phosphorylated FRET-peptides maintain FRET. A […] method, which calculates the ratio (the Emission Ratio) of donor emission to acceptor emission after excitation of the donor fluorophore at 400 nm, is used to quantitate reaction progress.
The assay is performed at an ATP concentration at, or close to, the Km. After the 60 minute Kinase Reaction incubation at RT, 5 μL of a 1:8 dilution of Development Reagent is added. The assay plate is incubated for a further 60 minutes at RT and read on a fluorescence plate reader.
Duplicate data points are generated from a ⅓ log dilution series of a stock solution of test compound in DMSO. Nine dilutions steps are made from a top concentration of 10 μM, and a ‘no compound’ blank is included. Data is collected and analysed using XLfit software from IDBS.

T1 sequence (P53350 whole entry): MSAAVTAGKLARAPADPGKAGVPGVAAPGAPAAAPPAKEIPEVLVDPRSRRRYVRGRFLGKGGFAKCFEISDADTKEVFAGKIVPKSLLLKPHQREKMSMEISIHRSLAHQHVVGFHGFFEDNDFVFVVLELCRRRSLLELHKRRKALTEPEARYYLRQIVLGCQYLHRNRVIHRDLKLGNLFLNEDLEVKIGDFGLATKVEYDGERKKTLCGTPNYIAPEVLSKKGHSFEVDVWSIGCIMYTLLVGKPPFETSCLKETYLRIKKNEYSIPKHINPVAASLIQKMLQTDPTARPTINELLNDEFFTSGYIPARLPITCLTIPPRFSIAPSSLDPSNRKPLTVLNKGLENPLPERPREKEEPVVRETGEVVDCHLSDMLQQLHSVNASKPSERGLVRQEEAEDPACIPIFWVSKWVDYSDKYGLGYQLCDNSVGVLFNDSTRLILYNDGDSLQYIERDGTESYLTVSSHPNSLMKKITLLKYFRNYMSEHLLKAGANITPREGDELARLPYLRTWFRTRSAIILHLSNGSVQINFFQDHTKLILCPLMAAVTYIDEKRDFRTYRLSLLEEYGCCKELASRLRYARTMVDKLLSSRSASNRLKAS

For the compound `CC[C@@H]1C(=O)N(C)c2cnc(Nc3ccc(OCC[C@H](N)C(=O)OC4CCCC4)cc3)nc2N1C1CCCC1` [Example 3, Cyclopentyl O-(4-{[(7R)-8-cyclopentyl-7-ethyl-5-methyl-6-oxo-5,6,7,8-tetrahydropteridin-2-yl]amino}phenyl)-L-homoserinate], the IC50 in the experiment with HCT 116 cell line is 100 to 500 nM; at PLK1 it was less than 100 nM.
Taken in the same sequence, the figures for `CC[C@@H]1C(=O)N(C)c2cnc(Nc3ccc(OCC[C@H](N)C(=O)OC4CCCC4)cc3OC)nc2N1C1CCCC1` [Example 4, Cyclopentyl O-(4-{[(7R)-8-cyclopentyl-7-ethyl-5-methyl-6-oxo-5,6,7,8-tetrahydropteridin-2-yl]amino}-3-methoxyphenyl)-L-homoserinate] were less than 100 nM and less than 100 nM.
Taken in the same sequence, the figures for `CC[C@@H]1C(=O)N(C)c2cnc(Nc3ccc(C(=O)NCC[C@H](N)C(=O)OC4CCCC4)cc3OC)nc2N1C1CCCC1` [Example 5, Cyclopentyl (2S)-2-amino-4-[(4-{[(7R)-8-cyclopentyl-7-ethyl-5-methyl-6-oxo-5,6,7,8-tetrahydropteridin-2-yl]amino}-3-methoxybenzoyl)amino]butanoate] were less than 100 nM and less than 100 nM.
With `CC[C@@H]1C(=O)N(C)c2cnc(Nc3ccc(C(=O)N[C@@H]4CN[C@H](C(=O)OC5CCCC5)C4)cc3OC)nc2N1C1CCCC1` [Example 6, Cyclopentyl (4S)-4-[(4-{[(7R)-8-cyclopentyl-7-ethyl-5-methyl-6-oxo-5,6,7,8-tetrahydropteridin-2-yl]amino}-3-methoxybenzoyl)amino]-L-prolinate], the IC50 in the experiment on HCT 116 cell line and on PLK1 was less than 100 nM throughout.
`CC[C@@H]1C(=O)N(C)c2cnc(Nc3ccc(C(=O)Nc4ccc(C[C@H](N)C(=O)OC5CCCC5)cc4)cc3OC)nc2N1C1CCCC1` [Example 7, Cyclopentyl 4-[(4-{[(7R)-8-cyclopentyl-7-ethyl-5-methyl-6-oxo-5,6,7,8-tetrahydropteridin-2-yl]amino}-3-methoxybenzoyl)amino]-L-phenylalaninate]: the values for the IC50 in the experiment on HCT 116 cell line and at PLK1 were less than 100 nM and 100 to 500 nM, respectively.
`CC[C@@H]1C(=O)N(C)c2cnc(Nc3ccc(C(=O)NCCCC[C@H](N)C(=O)OC4CCCC4)cc3OC)nc2N1C1CCCC1` [Example 8, Cyclopentyl N^6-(4-{[(7R)-8-cyclopentyl-7-ethyl-5-methyl-6-oxo-5,6,7,8-tetrahydropteridin-2-yl]amino}-3-methoxybenzoyl)lysinate]: the IC50 in the experiment with HCT 116 cell line and on PLK1 was less than 100 nM each time.
Take `CC[C@@H]1C(=O)N(C)c2cnc(Nc3ccc(C(=O)NCc4ccc(OCC[C@H](N)C(=O)OC5CCCC5)cc4)cc3OC)nc2N1C1CCCC1` [Example 9, Cyclopentyl O-(4-{[(4-{[(7R)-8-cyclopentyl-7-ethyl-5-methyl-6-oxo-5,6,7,8-tetrahydropteridin-2-yl]amino}-3-methoxybenzoyl)amino]methyl}phenyl)-L-homoserinate]: the figures for the IC50 in the experiment on HCT 116 cell line and at PLK1 were less than 100 nM and 100 to 500 nM, respectively.
The like results for `CC[C@@H]1C(=O)N(C)c2cnc(Nc3ccc(C(=O)NCCN4CCC(C[C@H](N)C(=O)OC5CCCC5)CC4)cc3OC)nc2N1C1CCCC1` [Example 10, Cyclopentyl 3-(1-{2-[(4-{[(7R)-8-cyclopentyl-7-ethyl-5-methyl-6-oxo-5,6,7,8-tetrahydropteridin-2-yl]amino}-3-methoxybenzoyl)amino]ethyl}piperidin-4-yl)alaninate] were, in that order, less than 100 nM and less than 100 nM.
The like results for `CC[C@@H]1C(=O)N(C)c2cnc(Nc3ccc(C(=O)Nc4ccc(C[C@H](N)C(=O)OC(C)(C)C)cc4)cc3OC)nc2N1C1CCCC1` [Example 11, tert-Butyl 4-[(4-{[(7R)-8-cyclopentyl-7-ethyl-5-methyl-6-oxo-5,6,7,8-tetrahydropteridin-2-yl]amino}-3-methoxybenzoyl)amino]-L-phenylalaninate] were, in that order, 100 to 500 nM and less than 100 nM.
Take `CC[C@@H]1C(=O)N(C)c2cnc(Nc3ccc(C(=O)NCc4ccc(OCC[C@H](N)C(=O)OC(C)(C)C)cc4)cc3OC)nc2N1C1CCCC1` [Example 12]: the IC50 in the experiment on HCT 116 cell line and at PLK1 was less than 100 nM throughout.
In the case of `CC[C@@H]1C(=O)N(C)c2cnc(Nc3ccc(C(=O)N4CCNC(C(=O)OC5CCCC5)C4)cc3OC)nc2N1C1CCCC1` (stereo partly drawn) [Example 13, Cyclopentyl 4-(4-{[(7R)-8-cyclopentyl-7-ethyl-5-methyl-6-oxo-5,6,7,8-tetrahydropteridin-2-yl]amino}-3-methoxybenzoyl)piperazine-2-carboxylate], the IC50 with HCT 116 cell line is 100 to 500 nM; on PLK1 it was less than 100 nM.
Taken in the same sequence, the figures for `CC[C@@H]1C(=O)N(C)c2cnc(Nc3ccc(C(=O)NCCN4CCNC(C(=O)OC5CCCC5)C4)cc3OC)nc2N1C1CCCC1` (stereo partly drawn) [Example 14, Cyclopentyl 4-{2-[(4-{[(7R)-8-cyclopentyl-7-ethyl-5-methyl-6-oxo-5,6,7,8-tetrahydropteridin-2-yl]amino}-3-methoxybenzoyl)amino]ethyl}piperazine-2-carboxylate] were less than 100 nM and less than 100 nM.
Taken in the same sequence, the figures for `CC[C@@H]1C(=O)N(C)c2cnc(Nc3ccc(C(=O)NCCN4CCNC(C(=O)OC(C)(C)C)C4)cc3OC)nc2N1C1CCCC1` (stereo partly drawn) [Example 15, tert-butyl 4-{2-[(4-{[(7R)-8-cyclopentyl-7-ethyl-5-methyl-6-oxo-5,6,7,8-tetrahydropteridin-2-yl]amino}-3-methoxybenzoyl)amino]ethyl}piperazine-2-carboxylate] were less than 100 nM and less than 100 nM.
With `CC[C@@H]1C(=O)N(C)c2cnc(Nc3ccc(C(=O)NC4CCN(CC[C@H](N)C(=O)OC5CCCC5)C4)cc3OC)nc2N1C1CCCC1` (some centres unmarked) [Example 16], the IC50 with HCT 116 cell line and on PLK1 was less than 100 nM in each case.
As to `CC[C@@H]1C(=O)N(C)c2cnc(Nc3ccc(C(=O)NC4CCN(CC[C@@H](N)C(=O)OC5CCCC5)C4)cc3OC)nc2N1C1CCCC1` (stereo partly drawn) [Example 17, Cyclopentyl (2R)-2-amino-4-{3-[(4-{[(7R)-8-cyclopentyl-7-ethyl-5-methyl-6-oxo-5,6,7,8-tetrahydropteridin-2-yl]amino}-3-methoxybenzoyl)amino]pyrrolidin-1-yl}butanoate], the IC50 with HCT 116 cell line and at PLK1 was less than 100 nM throughout.
Turning to `CC[C@@H]1C(=O)N(C)c2cnc(Nc3ccc(C(=O)NC4C5CN(CC[C@H](N)C(=O)OC6CCCC6)CC54)cc3OC)nc2N1C1CCCC1` (stereo partly drawn) [Example 18, Cyclopentyl (2S)-2-amino-4-{6-[(4-{[(7R)-8-cyclopentyl-7-ethyl-5-methyl-6-oxo-5,6,7,8-tetrahydropteridin-2-yl]amino}-3-methoxybenzoyl)amino]-3-azabicyclo[3.1.01]hex-3-yl}butanoate], the IC50 in the experiment with HCT 116 cell line and at PLK1 was less than 100 nM throughout.
Regarding `CC[C@@H]1C(=O)N(C)c2cnc(Nc3ccc(C(=O)Nc4ccc(CCC[C@H](N)C(=O)OC5CCCC5)cc4)cc3OC)nc2N1C1CCCC1` [Example 19, Cyclopentyl 5-{4-[(4-{[(7R)-8-cyclopentyl-7-ethyl-5-methyl-6-oxo-5,6,7,8-tetrahydro-pteridin-2-yl]amino}-3-methoxybenzoyl)amino]phenyl}-L-norvalinate], the IC50 with HCT 116 cell line and at PLK1 was less than 100 nM in each case.
On to `CC[C@@H]1C(=O)N(C)c2cnc(Nc3ccc(C(=O)Nc4ccc(/C=C/C[C@H](N)C(=O)OC5CCCC5)cc4)cc3OC)nc2N1C1CCCC1` [Example 20, Cyclopentyl (2S,4E)-2-amino-5-{4-[(4-{[(7R)-8-cyclopentyl-7-ethyl-5-methyl-6-oxo-5,6,7,8-tetrahydropteridin-2-yl]amino}-3-methoxybenzoyl)amino]phenyl}pent-4-enoate], for which the IC50 in the experiment on HCT 116 cell line and at PLK1 was less than 100 nM throughout.
For the compound `CC[C@@H]1C(=O)N(C)c2cnc(Nc3ccc(C(=O)NC4CCN(CCC[C@H](N)C(=O)OC(C)(C)C)CC4)cc3OC)nc2N1C1CCCC1` [Example 23, tert-butyl 5-{4-[(4-{[(7R)-8-cyclopentyl-7-ethyl-5-methyl-6-oxo-5,6,7,8-tetrahydropteridin-2-yl]amino}-3-methoxybenzoyl)amino]piperidin-1-yl}-L-norvalinate], the IC50 in the experiment with HCT 116 cell line and on PLK1 was less than 100 nM in each case.
